BindingDB's records for doi:10.1021/jm900098v (Kosan Biosciences, 2009)
pKd: −log10 of the molar value.

molecular target: Heat shock protein HSP 90-beta (Homo sapiens, UniProt P08238); experiment: Binding affinity to human recombinant HSP90
Sequence (P08238 whole entry): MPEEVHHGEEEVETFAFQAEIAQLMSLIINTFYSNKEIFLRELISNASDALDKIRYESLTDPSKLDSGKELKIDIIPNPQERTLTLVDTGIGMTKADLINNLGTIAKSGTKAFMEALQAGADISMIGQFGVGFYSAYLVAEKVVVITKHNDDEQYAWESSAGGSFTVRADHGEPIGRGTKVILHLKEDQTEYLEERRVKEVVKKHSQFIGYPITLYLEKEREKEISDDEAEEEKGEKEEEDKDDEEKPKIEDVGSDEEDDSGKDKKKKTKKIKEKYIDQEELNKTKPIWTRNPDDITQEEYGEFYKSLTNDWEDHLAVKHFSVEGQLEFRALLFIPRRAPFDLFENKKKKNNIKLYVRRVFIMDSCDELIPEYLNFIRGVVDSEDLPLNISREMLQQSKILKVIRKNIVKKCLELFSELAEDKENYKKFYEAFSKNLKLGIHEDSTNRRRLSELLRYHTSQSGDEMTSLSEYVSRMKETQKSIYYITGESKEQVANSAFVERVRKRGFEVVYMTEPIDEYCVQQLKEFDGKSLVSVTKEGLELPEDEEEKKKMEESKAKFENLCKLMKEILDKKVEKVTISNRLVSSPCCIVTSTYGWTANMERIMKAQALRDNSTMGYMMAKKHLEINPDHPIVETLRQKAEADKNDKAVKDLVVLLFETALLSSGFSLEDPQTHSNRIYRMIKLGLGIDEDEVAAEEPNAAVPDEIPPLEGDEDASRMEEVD

SMILES | pKd
CO[C@H]1C=CC=C(C)C(=O)Nc2cc(O)c(N=CCN(C)C)c(c2O)C[C@@H](C)C[C@H](OC)[C@H](N)[C@@H](C)/C=C(\C)[C@@H]1OC(N)=O | < 4.60
CO[C@H]1C=CC=C(C)C(=O)Nc2cc(O)c(N=CCN(C)C)c(c2O)C[C@@H](C)C[C@H](OC)[C@H](NCCF)[C@@H](C)/C=C(\C)[C@@H]1OC(N)=O | < 4.30
CO[C@H]1C[C@H](C)Cc2c(O)c(cc(O)c2N=CCN(C)C)NC(=O)C(C)=CC=C[C@H](OC)[C@@H](OC(N)=O)/C(C)=C/[C@H](C)/C1=N\OCc1ccccc1 | < 4.00
CO[C@H]1C[C@H](C)Cc2c(O)c(cc(O)c2N=CCN(C)C)NC(=O)C(C)=CC=C[C@H](OC)[C@@H](OC(N)=O)/C(C)=C/[C@H](C)/C1=N\OCC(=O)O [2-(((8S,9S,12S,14S,16R)-9-(carbamoyloxy)-19-(2-(dimethylamino)ethylamino)-8,14-dimethoxy-4,10,12,16-tetramethyl-3,20,22-trioxo-2-azabicyclo[16.3.1]docosa-1(21),4,6,10,18-pentaen-13-ylidene)aminooxy)acetic acid] | < 4.60
C=CCO[C@H]1[C@@H](OC)CC(C)=Cc2c(O)c(cc(O)c2N2CCC2)NC(=O)C(C)=CC=C[C@H](OC)[C@@H](OC(N)=O)/C(C)=C/[C@@H]1C [11-O-Allyl-17-(1-azetidinyl)-17-demethoxygeldanamycin] | 5.54
CO[C@H]1[C@@H](OC)C[C@H](C)Cc2c(O)c(cc(O)c2N=CCN(C)C)NC(=O)C(C)=CC=C[C@H](OC)[C@@H](OC(N)=O)/C(C)=C/[C@@H]1C [11-O-Methyl-17-[2-(dimethylamino)ethyl]amino-17-demethoxygeldanamycin] | 6.10
CO[C@H]1C[C@H](C)Cc2c(O)c(cc(O)c2N=CCF)NC(=O)C(C)=CC=C[C@H](OC)[C@@H](OC(N)=O)C(C)=C[C@H](C)C1N=O (stereo partly drawn) [(8S,9S,12S,13E,14S,16R)-19-(2-fluoroethylamino)-13-(hydroxyimino)-8,14-dimethoxy-4,10,12,16-tetramethyl-3,20,22-trioxo-2-azabicyclo[16.3.1]docosa-1(21),4,6,10,18-pentaen-9-yl carbamate] | < 4.60
C=CC=Nc1c(O)cc2c(O)c1C[C@@H](C)C[C@H](OC)C(N=O)[C@@H](C)C=C(C)[C@H](OC(N)=O)[C@@H](OC)C=CC=C(C)C(=O)N2 (stereo partly drawn) [(8S,9S,12S,13E,14S,16R)-19-(allylamino)-13-(hydroxyimino)-8,14-dimethoxy-4,10,12,16-tetramethyl-3,20,22-trioxo-2-azabicyclo[16.3.1]docosa-1(21),4,6,10,18-pentaen-9-yl carbamate] | < 5.00
CO[C@H]1[C@@H](OC)C[C@H](C)Cc2c(O)c(cc(O)c2N=CCN2CCCC2)NC(=O)C(C)=CC=C[C@H](OC)[C@@H](OC(N)=O)/C(C)=C/[C@@H]1C [(8S,9S,12S,13R,14S,16R)-8,13,14-trimethoxy-4,10,12,16-tetramethyl-3,20,22-trioxo-19-(2-(pyrrolidin-1-yl)ethylamino)-2-azabicyclo[16.3.1]docosa-1(21),4,6,10,18-pentaen-9-yl carbamate] | 6.00
CNCC=Nc1c(O)cc2c(O)c1C[C@@H](C)C[C@H](OC)[C@H](OC(=O)CN)[C@@H](C)/C=C(\C)[C@H](OC(N)=O)[C@@H](OC)C=CC=C(C)C(=O)N2 [(8S,9S,12S,13R,14S,16R)-9-(carbamoyloxy)-8,14-dimethoxy-4,10,12,16-tetramethyl-19-(2-(methylamino)ethylamino)-3,20,22-trioxo-2-azabicyclo[16.3.1]docosa-1(21),4,6,10,18-pentaen-13-yl 2-aminoacetate] | < 4.60
CO[C@H]1C=CC=C(C)C(=O)Nc2cc(O)c(N=CCF)c(c2O)C[C@@H](C)C[C@H](OC)[C@H](OC(=O)CN)[C@@H](C)/C=C(\C)[C@@H]1OC(N)=O [(8S,9S,12S,13R,14S,16R)-9-(carbamoyloxy)-19-(2-fluoroethylamino)-8,14-dimethoxy-4,10,12,16-tetramethyl-3,20,22-trioxo-2-azabicyclo[16.3.1]docosa-1(21),4,6,10,18-pentaen-13-yl 2-aminoacetate] | < 4.60
CO[C@H]1C=CC=C(C)C(=O)Nc2cc(O)c(N=CCN(C)C)c(c2O)C[C@@H](C)C[C@H](OC)[C@H](NCC(F)F)[C@@H](C)/C=C(\C)[C@@H]1OC(N)=O [(8S,9S,12S,13R,14S,16R)-13-(2,2-difluoroethylamino)-19-(2-(dimethylamino)ethylamino)-8,14-dimethoxy-4,10,12,16-tetramethyl-3,20,22-trioxo-2-azabicyclo[16.3.1]docosa-1(21),4,6,10,18-pentaen-9-yl carbamate] | 5.54

Other lines, results leading:

pKd | SMILES
< 4.30 | CO[C@H]1C=CC=C(C)C(=O)Nc2cc(O)c(N=CCN(C)C)c(c2O)C[C@@H](C)C[C@H](OC)[C@H](NCCN(C)C)[C@@H](C)/C=C(\C)[C@@H]1OC(N)=O [(8S,9S,12S,13R,14S,16R)-13,19-bis(2-(dimethylamino)ethylamino)-8,14-dimethoxy-4,10,12,16-tetramethyl-3,20,22-trioxo-2-azabicyclo[16.3.1]docosa-1(21),4,6,10,18-pentaen-9-yl carbamate]
6.40 | CO[C@H]1C=CC=C(C)C(=O)Nc2cc(O)c(N=CCN3CCCC3)c(c2O)C[C@@H](C)C[C@H](OC)[C@H](O)[C@@H](C)/C=C(\C)[C@@H]1OC(N)=O [(8S,9S,12S,13R,14S,16R)-13-hydroxy-8,14-dimethoxy-4,10,12,16-tetramethyl-3,20,22-trioxo-19-(2-(pyrrolidin-1-yl)ethylamino)-2-azabicyclo[16.3.1]docosa-1(21),4,6,10,18-pentaen-9-yl carbamate]
6.10 | CO[C@H]1C=CC=C(C)C(=O)Nc2cc(O)c(N=CCc3cnc[nH]3)c(c2O)C[C@@H](C)C[C@H](OC)[C@H](O)[C@@H](C)/C=C(\C)[C@@H]1OC(N)=O [(8S,9S,12S,13R,14S,16R)-19-(2-(1H-imidazol-4-yl)ethylamino)-13-hydroxy-8,14-dimethoxy-4,10,12,16-tetramethyl-3,20,22-trioxo-2-azabicyclo[16.3.1]docosa-1(21),4,6,10,18-pentaen-9-yl carbamate]
6.00 | CO[C@H]1[C@@H](OC)C[C@H](C)Cc2c(O)c(cc(O)c2N=CCN2CCC2)NC(=O)C(C)=CC=C[C@H](OC)[C@@H](OC(N)=O)/C(C)=C/[C@@H]1C [(8S,9S,12S,13R,14S,16R)-19-(2-(azetidin-1-yl)ethylamino)-8,13,14-trimethoxy-4,10,12,16-tetramethyl-3,20,22-trioxo-2-azabicyclo[16.3.1]docosa-1(21),4,6,10,18-pentaen-9-yl carbamate]
6.40 | CO[C@H]1C=CC=C(C)C(=O)Nc2cc(O)c(N=CCN3CCC3)c(c2O)C[C@@H](C)C[C@H](OC)[C@H](O)[C@@H](C)/C=C(\C)[C@@H]1OC(N)=O [(8S,9S,12S,13R,14S,16R)-19-(2-(azetidin-1-yl)ethylamino)-13-hydroxy-8,14-dimethoxy-4,10,12,16-tetramethyl-3,20,22-trioxo-2-azabicyclo[16.3.1]docosa-1(21),4,6,10,18-pentaen-9-yl carbamate]
5.40 | CO[C@H]1C=CC=C(C)C(=O)Nc2cc(O)c(N=CCN(C)C)c(c2O)C[C@@H](C)C[C@H](OC)[C@H](NCC(F)(F)F)[C@@H](C)/C=C(\C)[C@@H]1OC(N)=O [(8S,9S,12S,13R,14S,16R)-19-(2-(dimethylamino)ethylamino)-8,14-dimethoxy-4,10,12,16-tetramethyl-3,20,22-trioxo-13-(2,2,2-trifluoroethylamino)-2-azabicyclo[16.3.1]docosa-1(21),4,6,10,18-pentaen-9-yl carbamate]
< 5.00 | CO[C@H]1C=CC=C(C)C(=O)Nc2cc(O)c(N=CCN(C)C)c(c2O)C[C@@H](C)C[C@H](OC)[C@H](NCCC(F)(F)F)[C@@H](C)/C=C(\C)[C@@H]1OC(N)=O [(8S,9S,12S,13R,14S,16R)-19-(2-(dimethylamino)ethylamino)-8,14-dimethoxy-4,10,12,16-tetramethyl-3,20,22-trioxo-13-(3,3,3-trifluoropropylamino)-2-azabicyclo[16.3.1]docosa-1(21),4,6,10,18-pentaen-9-yl carbamate]
< 4.60 | C=CC=Nc1c(O)cc2c(O)c1C[C@@H](C)C[C@H](OC)[C@H](OC(=O)CN)[C@@H](C)/C=C(\C)[C@H](OC(N)=O)[C@@H](OC)C=CC=C(C)C(=O)N2 [(8S,9S,12S,13R,14S,16R)-19-(allylamino)-9-(carbamoyloxy)-8,14-dimethoxy-4,10,12,16-tetramethyl-3,20,22-trioxo-2-azabicyclo[16.3.1]docosa-1(21),4,6,10,18-pentaen-13-yl 2-aminoacetate]
< 4.60 | C=CC=Nc1c(O)cc2c(O)c1C[C@@H](C)C[C@H](OC)[C@H](OC(=O)CCN)[C@@H](C)/C=C(\C)[C@H](OC(N)=O)[C@@H](OC)C=CC=C(C)C(=O)N2 [(8S,9S,12S,13R,14S,16R)-19-(allylamino)-9-(carbamoyloxy)-8,14-dimethoxy-4,10,12,16-tetramethyl-3,20,22-trioxo-2-azabicyclo[16.3.1]docosa-1(21),4,6,10,18-pentaen-13-yl 3-aminopropanoate]
5.40 | CO[C@H]1[C@@H](OC)CC(C)=Cc2c(O)c(cc(O)c2N2CCC2)NC(=O)C(C)=CC=C[C@H](OC)[C@@H](OC(N)=O)/C(C)=C/[C@@H]1C [(8S,9S,12S,13R,14S,16R)-19-(azetidin-1-yl)-8,13,14-trimethoxy-4,10,12,16-tetramethyl-3,20,22-trioxo-2-azabicyclo[16.3.1]docosa-1(21),4,6,10,18-pentaen-9-yl carbamate]
< 4.00 | CO[C@H]1C[C@H](C)Cc2c(O)c(cc(O)c2N=CCN(C)C)NC(=O)C(C)=CC=C[C@H](OC)[C@@H](OC(N)=O)/C(C)=C/[C@H](C)/C1=N\OCCN(C)C [(8S,9S,12S,14S,16R)-13-(2-(dimethylamino)ethoxyimino)-19-(2-(dimethylamino)ethylamino)-8,14-dimethoxy-4,10,12,16-tetramethyl-3,20,22-trioxo-2-azabicyclo[16.3.1]docosa-1(21),4,6,10,18-pentaen-9-yl carbamate]
< 4.00 | C=CCO/N=C1/[C@@H](OC)C[C@H](C)Cc2c(O)c(cc(O)c2N=CCN(C)C)NC(=O)C(C)=CC=C[C@H](OC)[C@@H](OC(N)=O)/C(C)=C/[C@@H]1C [(8S,9S,12S,14S,16R)-13-(allyloxyimino)-19-(2-(dimethylamino)ethylamino)-8,14-dimethoxy-4,10,12,16-tetramethyl-3,20,22-trioxo-2-azabicyclo[16.3.1]docosa-1(21),4,6,10,18-pentaen-9-yl carbamate]
